Experimental findings from patent US9624182B2, “Compounds as lysophosphatidic acid receptor antagonists” (Amira Pharmaceuticals, Inc., priority 2009, dated 2017) are described below.

Where only a bound is given, the exact number is not on record here.

Usually IC50 stands for the concentration that gives 50% inhibition.

T1 sequence (Q92633 whole entry): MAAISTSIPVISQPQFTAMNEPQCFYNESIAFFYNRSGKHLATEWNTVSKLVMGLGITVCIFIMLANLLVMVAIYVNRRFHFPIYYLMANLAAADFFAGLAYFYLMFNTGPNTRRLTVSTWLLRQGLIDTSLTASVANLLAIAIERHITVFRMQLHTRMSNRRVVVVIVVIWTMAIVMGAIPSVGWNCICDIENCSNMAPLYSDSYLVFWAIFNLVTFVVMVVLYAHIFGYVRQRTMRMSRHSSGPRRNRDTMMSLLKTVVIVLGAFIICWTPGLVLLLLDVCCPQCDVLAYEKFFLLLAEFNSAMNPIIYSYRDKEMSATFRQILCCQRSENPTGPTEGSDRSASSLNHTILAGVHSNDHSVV

This experiment concerns the target T1, human LPA1 (Homo sapiens, UniProt Q92633).
T1 construct: the full-length cDNA for human LPA1 was obtained by PCR of the reverse transcription reaction; expressed in transfected cells
The experiment can be described thus: LPA1 calcium flux assay. It counts as cell-based. Particulars: CHO cells expressing human LPA1, stimulated with 10 nM LPA; read-out: HLPA1 Ca Flux IC50. The method in brief:
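Antagonism measured as block of 10 nM LPA-evoked calcium rise in stable human LPA1-CHO cells. After overnight serum-free culture and 1 h dye loading at 37 °C (buffer with 0.3% fatty-acid-free albumin), compound was added for 30 min at room temperature. Titration curves gave IC50.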
A general note: A change in cytosolic calcium serves as a functional read-out for many receptors and channels.
Regarding `Cc1noc(-c2ccc(-c3ccc(C4(CC(=O)O)CC4)cc3)cc2)c1C(O)CCCCc1ccccc1` (stereo not drawn) [Compound 1-207, (1-{4′-[4-(1-Hydroxy-5-phenyl-pentyl)-3-methyl-isoxazol-5-yl]-biphenyl-4-yl}-cyclopropyl)-acetic acid], the IC50 was less than 0.3 µM. Then `Cc1noc(-c2ccc(-c3ccccc3CC(=O)O)cc2)c1NC(C)CCc1ccc2c(c1)OCO2` (stereo not drawn) [Compound 1-232, {4′-[4-(3-Benzo[1,3]dioxol-5-yl-1-methyl-propylamino)-3-methyl-isoxazol-5-yl]-biphenyl-2-yl}-acetic acid], with more than 50 µM; and `Cc1noc(-c2ccc(-c3ccc(C4(C(=O)O)CC4)cc3)cc2)c1C(CCCc1ccccc1)NS(C)(=O)=O` (stereo not drawn) [Compound 1-257, 1-{4′-[4-(1-Methanesulfonylamino-4-phenyl-butyl)-3-methyl-isoxazol-5-yl]-biphenyl-4-yl}-cyclopropanecarboxylic acid], with 1 to 50 µM; and `Cc1noc(-c2ccc(-c3ccc(CCC(=O)O)cc3)cc2)c1C(O)CCCc1ccccc1` (stereo not drawn) [Compound 1-197, 3-{4′-[4-(1-Hydroxy-4-phenyl-butyl)-3-methyl-isoxazol-5-yl]-biphenyl-4-yl}-propionic acid], with less than 0.3 µM. Then `Cc1noc(-c2ccc(-c3ccc(C4(C(=O)O)CC4)cc3)cc2)c1C(CO)NCc1ccccc1` (stereo not drawn) [Compound 1-189, 1-{4′-[4-(1-Benzylamino-2-hydroxy-ethyl)-3-methyl-isoxazol-5-yl]-biphenyl-4-yl}-cyclopropanecarboxylic acid], with less than 0.3 µM. Then `Cc1noc(-c2ccc(-c3ccc(C4(C(=O)O)CC4)cc3)cc2)c1Nc1ccc2ccccc2n1` [Compound 1-280, 1-{4′-[3-Methyl-4-(quinolin-2-ylamino)-isoxazol-5-yl]-biphenyl-4-yl}-cyclopropanecarboxylic acid], with less than 0.3 µM; and `Cc1noc(-c2ccc(-c3ccc(C4(C(=O)O)CC4)cc3)cc2)c1CCC(=O)N(C)C1CC1` [Compound 1-127, 1-(4′-{4-[2-(Cyclopropyl-methyl-carbamoyl)-ethyl]-3-methyl-isoxazol-5-yl}-biphenyl-4-yl)-cyclopropanecarboxylic acid], with 1 to 50 µM. Take `Cc1noc(-c2ccc(-c3ccc(C4(C(=O)O)CC4)cc3)cc2)c1NC(=O)C(C)Oc1ccccc1` (stereo not drawn) [Compound 1-17, 1-{4′-[3-Methyl-4-(2-phenoxy-propionylamino)-isoxazol-5-yl]-biphenyl-4-yl}-cyclopropanecarboxylic acid]: the IC50 was in the range of 1 to 50 µM. Then `Cc1noc(-c2ccc(-c3ccc(C4(C(=O)NS(C)(=O)=O)CC4)cc3)cc2)c1[C@@H](COCc1ccccc1)OC(=O)NS(C)(=O)=O` [Compound 2-4, N-Sulfonylmethyl carbamic acid (S)-2-benzyloxy-1-{5-[4′-(1-methanesulfonylaminocarbonyl-cyclopropyl)-biphenyl-4-yl]-3-methyl-isoxazol-4-yl}-ethyl ester], with less than 0.3 µM.

On to `Cc1noc(-c2ccc(-c3ccc(C4(C(=O)O)CC4)cc3)cc2)c1C(O)C(=O)N[C@H](C)c1ccccc1` (stereo partly drawn) [Compound 1-253, 1-(4′-{4-[Hydroxy-((R)-1-phenyl-ethylcarbamoyl)-methyl]-3-methyl-isoxazol-5-yl}-biphenyl-4-yl)-cyclopropanecarboxylic acid], for which the IC50 was less than 0.3 µM. Then `Cc1noc(-c2ccc(-c3ccc(C4(CC(=O)O)CC4)cc3)cc2)c1/C=C\CCc1ccccc1` [Compound 1-101, (1-{4′-[3-Methyl-4-((Z)-4-phenyl-but-1-enyl)-isoxazol-5-yl]-biphenyl-4-yl}-cyclopropyl)-acetic acid], with less than 0.3 µM. Then `C=CCCC(C)Nc1c(C)noc1-c1ccc(-c2ccc(C3(CC(=O)O)CC3)cc2)cc1` (stereo not drawn) [Compound 1-226, (1-{4′-[3-Methyl-4-(1-methyl-pent-4-enylamino)-isoxazol-5-yl]-biphenyl-4-yl}-cyclopropyl)-acetic acid], with 0.3 to 1 µM; and `Cc1noc(-c2ccc(-c3ccc(C4(C(=O)O)CC4)cc3)cc2)c1NC(=O)NCc1ccccc1F` [Compound 1-12, 1-(4′-{4-[3-(2-Fluoro-benzyl)-ureido]-3-methyl-isoxazol-5-yl}-biphenyl-4-yl)-cyclopropanecarboxylic acid], with less than 0.3 µM. As for `Cc1noc(-c2ccc(-c3ccc(C4(CC(=O)O)CC4)cc3)cc2)c1NC(C)CCc1ccc2c(c1)OCO2` (stereo not drawn) [Compound 1-233, (1-{4′-[4-(3-Benzo[1,3]dioxol-5-yl-1-methyl-propylamino)-3-methyl-isoxazol-5-yl]-biphenyl-4-yl}-cyclopropyl)-acetic acid], the IC50 was less than 0.3 µM. Then `Cc1noc(-c2ccc(-c3ccc(C4(C(=O)O)CC4)cc3)cc2)c1NC1Cc2ccccc2C1` [Compound 1-271, 1-{4′-[4-(Indan-2-ylamino)-3-methyl-isoxazol-5-yl]-biphenyl-4-yl}-cyclopropanecarboxylic acid], with 0.3 to 1 µM. With `Cc1noc(-c2ccc(-c3ccc(C4(C(=O)O)CC4)cc3)cc2)c1CS(=O)(=O)CCc1ccccc1` [Compound 1-55, 1-{4′-[3-Methyl-4-(2-phenyl-ethanesulfonylmethyl)-isoxazol-5-yl]-biphenyl-4-yl}-cyclopropanecarboxylic acid], the IC50 is less than 0.3 µM. Then `Cc1noc(-c2ccc(-c3ccc(C4(C(=O)O)CC4)cc3)cc2)c1CN(C)C(=O)C(C)Oc1ccccc1` (stereo not drawn) [Compound 1-72, 1-[4′-(3-Methyl-4-{[methyl-(2-phenoxy-propionyl)-amino]-methyl}-isoxazol-5-yl)-biphenyl-4-yl]-cyclopropanecarboxylic acid], with less than 0.3 µM; and `Cc1noc(-c2ccc(-c3ccc(C4(CC(=O)O)CC4)cc3)cc2)c1NC(C)CC(C)(C)c1ccccc1` (stereo not drawn) [Compound 1-287, (1-{4′-[4-(1,3-Dimethyl-3-phenyl-butylamino)-3-methyl-isoxazol-5-yl]-biphenyl-4-yl}-cyclopropyl)-acetic acid], with less than 0.3 µM. Then `Cc1noc(-c2ccc(-c3ccc(C4(CC(=O)O)CC4)cc3)cc2)c1NC(C)c1cc2ccccc2s1` (stereo not drawn) [Compound 1-286, (1-{4′-[4-(1-Benzo[b]thiophen-2-yl-ethylamino)-3-methyl-isoxazol-5-yl]-biphenyl-4-yl}-cyclopropyl)-acetic acid], with less than 0.3 µM. With `Cc1noc(-c2ccc(-c3ccc(C4(C(=O)O)CC4)cc3)cc2)c1CCC(=O)NCC1CC1` [Compound 1-40, 1-(4′-{4-[2-(Cyclopropylmethyl-carbamoyl)-ethyl]-3-methyl-isoxazol-5-yl}-biphenyl-4-yl)-cyclopropanecarboxylic acid], the IC50 was in the range of 1 to 50 µM. As for `Cc1noc(-c2ccc(-c3ccc([C@H]4C[C@H]4C(=O)O)cc3)cc2)c1CSCCc1ccccc1` (relative stereo) [Compound 1-131, (cis)-2-[4′-(3-Methyl-4-phenethylsulfanylmethyl-isoxazol-5-yl)-biphenyl-4-yl]-cyclopropanecarboxylic acid], the IC50 is less than 0.3 µM.

Consider `Cc1noc(-c2ccc(-c3ccc(C4(C(=O)O)CC4)cc3)cc2)c1CCC(=O)N(C)C(C)(C)c1ccccc1` [Compound 1-118, 1-[4′-(3-Methyl-4-{2-[methyl-(1-methyl-1-phenyl-ethyl)-carbamoyl]-ethyl}-isoxazol-5-yl)-biphenyl-4-yl]-cyclopropanecarboxylic acid], for which the IC50 lay in the range of 1 to 50 µM. Consider `Cc1noc(-c2ccc(-c3ccc(C4(C(=O)O)CC4)cc3)cc2)c1/C=C\CC(C)c1ccccc1` (stereo not drawn) [Compound 1-112, 1-{4′-[3-Methyl-4-((Z)-4-phenyl-pent-1-enyl)-isoxazol-5-yl]-biphenyl-4-yl}-cyclopropanecarboxylic acid], for which the IC50 was less than 0.3 µM.

On to `Cc1noc(-c2ccc(-c3ccc(C4(C(=O)O)CC4)cc3)cc2)c1C/C(CCc1ccccc1)=N/O` [Compound 1-134, 1-[4′-(4-{2-[Hydroxyimino]-4-phenyl-butyl}-3-methyl-isoxazol-5-yl)-biphenyl-4-yl]-cyclopropanecarboxylic acid], for which the IC50 was less than 0.3 µM. Then `COc1ccc(CCC(C)Nc2c(C)noc2-c2ccc(-c3ccc(C4(CC(=O)O)CC4)cc3)cc2)cc1` (stereo not drawn) [Compound 1-211, [1-(4′-{4-[3-(4-Methoxy-phenyl)-1-methyl-propylamino]-3-methyl-isoxazol-5-yl}-biphenyl-4-yl)-cyclopropyl]-acetic acid], with 0.3 to 1 µM; and `C=CCCC(C)Nc1c(C)noc1-c1ccc(-c2ccccc2CC(=O)O)cc1` (stereo not drawn) [Compound 1-228, {4′-[3-Methyl-4-(1-methyl-pent-4-enylamino)-isoxazol-5-yl]-biphenyl-2-yl}-acetic acid], with 1 to 50 µM; and `COc1ccc(CC(C)Nc2c(C)noc2-c2ccc(-c3ccc(C4(C(=O)O)CC4)cc3)cc2)cc1` (stereo not drawn) [Compound 1-237], with 1 to 50 µM.

Turning to `Cc1noc(-c2ccc(-c3ccc(CC(=O)O)cc3)cc2)c1C(O)COCc1cccc(C(F)(F)F)c1` (stereo not drawn) [Compound 1-241, (4′-{4-[1-Hydroxy-2-(3-trifluoromethyl-benzyloxy)-ethyl]-3-methyl-isoxazol-5-yl}-biphenyl-4-yl)-acetic acid], the IC50 was in the range of 1 to 50 µM.

In the case of `Cc1noc(-c2ccc(-c3ccc(C4(C(=O)O)CC4)cc3)cc2)c1Nc1cccc(C(=O)NCCN(C)C)n1` [Compound 1-299, 1-(4′-{4-[6-(2-Dimethylamino-ethylcarbamoyl)-pyridin-2-ylamino]-3-methyl-isoxazol-5-yl}-biphenyl-4-yl)-cyclopropanecarboxylic acid], the IC50 is 1 to 50 µM. Then `Cc1noc(-c2ccc(-c3ccc(C(C(=O)O)C(C)C)cc3)cc2)c1CSCCc1ccccc1` (stereo not drawn) [Compound 1-137, 3-Methyl-2-[4′-(3-methyl-4-phenethylsulfanylmethyl-isoxazol-5-yl)-biphenyl-4-yl]-butyric acid], with less than 0.3 µM.
